Data on nine molecules can be found in US8846671B2, “Heterocyclic alkynyl benzene compounds and medical compositions and uses thereof” (Guangzhou Institute of Biomedicine and Health, Chinese …, priority 2010, dated 2014).

Structures can show the parent of a compound that is named as a salt. Where two headings read alike, the source gives them in different places.

As usually defined, the Tmax is the time at which the peak concentration occurs. In general, AUC(0-inf) refers to the area under the concentration-time curve extrapolated to infinity. For orientation: half-life means the time in which the quantity being followed falls by half. The low end stands for rapid decline, the high end for slow decline. Broadly, the Cmax is the highest concentration seen after dosing. For orientation: bioavailability means the share of a dose that reaches the circulation, judged against a reference dose that is usually intravenous.

A short description of data set [1]: Pharmacokinetics and bioavailability in rats. In kind it is in vivo. As to conditions: SD rats; for BA(% Oral bioavailability) / bioavailability: calculated according to AUC data, PO vs IV; for bioavailability: read-out: BA(% Oral bioavailability). As for the experimental part:
Pharmacokinetics and bioavailability in rats. […] The blood samples were collected at the proper time points after administration, add heparin-anticoagulant, and the supernatants of the blood samples were collected (3000 rpm, 10 min) and stored at -20° C. for HPLC-MS analysis. After protein-precipitation procedure with acetonitrile, supernatants were collected after 3000 rpm, 10 min for analysis with HPLC-MS. The data were analyzed with software DAS2.0 to separately acquire the parameters of compartment models and non-compartment models. The bioavailability was calculated according to AUC data.

Data set [2] concerns K562R cells (imatinib-resistant cell line). The data set can be described thus: tumor cell proliferation, MTT or CCK8 assay, 72 h incubation. In kind it is cell-based. As to conditions: Homo sapiens, K-562R, imatinib-resistant K562R, read-out: IC50 on tumor cell proliferation, K562R cells. Background: Tetrazolium dyes change colour on reduction, which living cells bring about.

The target of data set [3] is BAF3-T315I cells (Ba/F3 cell line stably expressing BCR/ABL T315I) (Homo sapiens, UniProt P00519, T315I, cells depend on it). The description is as above. As to conditions: Ba/F3 expressing BCR/ABL T315I, 72 h, Table 1; read-out: IC50 on tumor cell proliferation, BAF3-T315I cells. In kind it is cell-based, mice. As for the experimental part:
(§1) The heterocyclic alkynyl benzene compounds at different concentrations (1×10^−10˜1×10^−5M) were incubated for 72 hours individually applied to 6 cell lines K562 (human CML cell line), MOLT-4 (human ALL cell line), U937 (human CML cell line), MEG-01 (human CML cell line), L78 (human lung cancer cell line), Ba/F3-T315I (mice Pro-B cells transformed with Bcr-AblT315I and STI57′-resistant cell line). After incubation for 72 hrs, cell proliferation was then determined by MTT assay or CCK8 assay, and 4 hr incubation is further conducted, the absorbance at 570 nm (CCK8, 450 nm, 650 nm) was measured using enzyme Microplate Reader.

For data set [4], the system named is MOLT-4 (Human acute lymphoblastic leukemia cell line). The description is as above. In kind it is cell-based. As to conditions: MOLT-4, 72 h, MTT or CCK8, nM, read-out: IC50 on tumor cell proliferation, MOLT-4. Here is the method: as §1, with “Reader. […] Based on the inhibition potency of the heterocyclic alkynyl benzene compounds on the cell proliferation, IC50 values were calculated and summarized in the Table 1 and Table 2 (The compounds used were synthesized by Examples 1-40, and the compounds are marked with Drug No. series in Table 1).” for “Reader.”

Data set [5] relates to K562 (human chronic myelogenous leukemia cell line). Described as above. As to conditions: K562, 72 h, MTT or CCK8, nM, read-out: IC50 on tumor cell proliferation, K562. In kind it is cell-based. As for the experimental part: as §1, with “Reader. […] Based on the inhibition potency of the heterocyclic alkynyl benzene compounds on the cell proliferation, IC50 values were calculated and summarized in the Table 1 and Table 2 (The compounds used were synthesized by Examples 1-40, and the compounds are marked with Drug No. series in Table 1).” for “Reader.”

Setting [6] is: both sexes, Sprague-Dawley, rat, plasma, iv, 5 mg/kg, IV 5 mg/kg.
Setting [7] is: both sexes, Sprague-Dawley, rat, plasma, iv, 5 mg/kg, IV 5 mg/kg, read-out: Cmax.
[8] abbreviates: both sexes, Sprague-Dawley, rat, plasma, iv, 5 mg/kg, IV 5 mg/kg, read-out: Tmax.
Setting [9] is: both sexes, Sprague-Dawley, rat, plasma, po, 25 mg/kg, PO 25 mg/kg.
[10] abbreviates: both sexes, Sprague-Dawley, rat, plasma, po, 25 mg/kg, PO 25 mg/kg, read-out: Cmax.
[11] abbreviates: both sexes, Sprague-Dawley, rat, plasma, iv, 2.5 mg/kg, IV 2.5 mg/kg.
Setting [12] is: both sexes, Sprague-Dawley, rat, plasma, po, 25 mg/kg, PO 25 mg/kg, read-out: Tmax.
[13] abbreviates: both sexes, Sprague-Dawley, rat, plasma, po.
The mark [14] stands for this setting: IV 5 mg/kg, dihydrochloride, 5 mg/kg.
Where [15] appears, read: PO 25 mg/kg, dihydrochloride, 25 mg/kg.
Setting [16] is: both sexes, Sprague-Dawley, rat, plasma, iv, 25 mg/kg, IV 25 mg/kg.
Setting [17] is: both sexes, Sprague-Dawley, rat, plasma, po, 5 mg/kg, PO 5 mg/kg.
The mark [18] stands for this setting: both sexes, Sprague-Dawley, rat, plasma, iv, 10 mg/kg, IV 10 mg/kg.
Setting [19] is: both sexes, Sprague-Dawley, rat, plasma, po, 20 mg/kg, PO 20 mg/kg.

With `Cc1cn(-c2cc(NC(=O)c3ccc(C)c(C#Cc4cnc5[nH]ncc5c4)c3)cc(C(F)(F)F)c2)cn1` [D767 hydrochloride salt, 3-(2-(1H-pyrazolo[3,4-b]pyridin-5-yl)ethynyl)-4-methyl-N-(3-(4-methyl-1H-imidazol-1-yl)-5-(trifluoromethyl)phenyl)benzamide], the “AUC(0-∞)” value in data set [1] (PO 25 mg/kg, 25 mg/kg) turned out to be 62208 ng·h/mL. For the same molecule, the Tmax amounted to 7.75 h in data set [1] (PO 25 mg/kg, 25 mg/kg) and 0.033 h in data set [1] (setting [8]). Further, in data set [1], the “BA(% Oral bioavailability)” value is given as 19%. The AUC(0-inf) in data set [1] (setting [6]) turned out to be 65500 ng·h/mL. For the same molecule, the half-life was 5.6 h in data set [1] (setting [6]) and 7.18 h in data set [1] (setting [9]). The peak concentration (Cmax) in data set [1] (setting [7]) came to 15300 ng/mL; in data set [1] (setting [10]), 3620 ng/mL.
Take `Cc1cn(-c2cc(NC(=O)c3ccc(C)c(C#Cc4cnc5[nH]ccc5c4)c3)cc(C(F)(F)F)c2)cn1` [D832, 3-(2-(1H-pyrrolo[2,3-b]pyridin-5-yl)ethynyl)-4-methyl-N-(3-(4-methyl-1H-imidazol-1-yl)-5-(trifluoromethyl)phenyl)benzamide]: the IC50 in data set [2] is 0.2 µM; in data set [4], more than 100 nM; in data set [5], 7.27 nM. For the same molecule, the GI50 in data set [3] was determined as 0.0218 µM.
With `CCNc1ncc(C#Cc2cc(C(=O)Nc3cc(-n4cnc(C)c4)cc(C(F)(F)F)c3)ccc2C)cn1` [D755 hydrochloride salt, 3-(2-(2-(ethylamino)pyrimidin-5-yl)ethynyl)-4-methyl-N-(3-(4-methyl-1H-imidazol-1-yl)-5-(trifluoromethyl)phenyl)benzamide], the AUC(0-inf) in data set [1] (setting [11]) was 3740 ng·h/mL; in data set [1] (setting [9]), 23700 ng·h/mL. For the same molecule, the half-life is 26.2 h in data set [1] (setting [11]) and 8.3 h in data set [1] (setting [9]). Besides, the Cmax in data set [1] (both sexes, Sprague-Dawley, rat, plasma, iv, 2.5 mg/kg, IV 2.5 mg/kg, read-out: Cmax) was determined as 510 ng/mL; in data set [1] (setting [10]) it was 1260 ng/mL. Also, the Tmax in data set [1] (both sexes, Sprague-Dawley, rat, plasma, iv, 2.5 mg/kg, IV 2.5 mg/kg, read-out: Tmax) came to 0.033 h; in data set [1] (setting [12]), 6.25 h. In data set [1] (setting [13]), the bioavailability was 63.3%.
Regarding `Cc1ccc(C(=O)Nc2cc(-n3ccnc3)cc(C(F)(F)F)c2)cc1C#Cc1cnc2[nH]ncc2c1` [D831 mesylate salt, N-(3-(1H-imidazol-1-yl)-5-(trifluoromethyl)phenyl)-3-(2-(1H-pyrazolo[3,4-b]pyridin-5-yl)ethynyl)-4-methylbenzamide], the AUC(0-inf) in data set [1] (setting [6]) was 107000 ng·h/mL; in data set [1] (setting [9]) it was 73900 ng·h/mL. The half-life in data set [1] (setting [6]) was 5.24 h; in data set [1] (setting [9]) it was 4.66 h. In addition, the figures for the maximum concentration (Cmax) in data set [1] (setting [7]) and in data set [1] (setting [10]) were 64200 ng/mL and 9520 ng/mL, respectively. In addition, the Tmax in data set [1] (setting [8]) is 0.033 h; in data set [1] (setting [12]), 2.25 h. The bioavailability in data set [1] (setting [13]) was 13.8%.
As for `Cc1ccc(C(=O)Nc2ccc(CN3CCN(C)CC3)c(C(F)(F)F)c2)cc1C#Cc1cnc(NC2CC2)nc1` [D825 mesylate salt, 3-(2-(2-(cyclopropylamino)pyrimidin-5-yl)ethynyl)-4-methyl-N-(4-((4-methylpiperazin-1-yl)methyl)-3-(trifluoromethyl)phenyl)benzamide trimesylate], the figures for the AUC(0-inf) in data set [1] (setting [6]) and in data set [1] (setting [9]) were 11800 ng·h/mL and 34600 ng·h/mL, respectively. The half-life in data set [1] (setting [6]) was 11.7 h; in data set [1] (setting [9]), 11.5 h. Moreover, the values for the Cmax in data set [1] (setting [7]) and in data set [1] (setting [10]) were 2330 ng/mL and 1700 ng/mL, respectively. Moreover, the results for the Tmax in data set [1] (setting [8]) and in data set [1] (setting [12]) were 0.033 h and 4.75 h, respectively. The bioavailability in data set [1] (setting [13]) is 58.5%.
For `Cc1ccc(C(=O)Nc2ccc(CN3CCN(C)CC3)c(C(F)(F)F)c2)cc1C#Cc1cnc2[nH]ncc2c1` [D824 hydrochloride salt, 3-(2-(1H-pyrazolo[3,4-b]pyridin-5-yl)ethynyl)-4-methyl-N-(4-((4-methylpiperazin-1-yl)methyl)-3-(trifluoromethyl)phenyl)benzamide dihydrochloride], in data set [1] (setting [14]), the “AUC(0-∞)” value was 2922.411 ng·h/mL, the Cmax was found to be 1375.625 ng/mL, the T1/2 is 5.557 h and the Tmax is 0.067 h. In data set [1] (setting [15]), the “AUC(0-∞)” value is 7108.253 ng·h/mL, the Cmax was 390.5 ng/mL and the T1/2 came to 10.55 h. Besides, the “BA(% Oral bioavailability)” value in data set [1] (dihydrochloride) is recorded as 48.7%. The Tmax in data set [1] (setting [12]) amounted to 6 h.
For `Cc1ncn(-c2cc(NC(=O)c3ccc(C)c(C#Cc4cnc5[nH]ncc5c4)c3)cc(C(F)(F)F)c2)n1` [D835 hydrochloride salt, 3-(2-(1H-pyrazolo[3,4-b]pyridin-5-yl)ethynyl)-4-methyl-N-(3-(3-methyl-1H-1,2,4-triazol-1-yl)-5-(trifluoromethyl)phenyl)benzamide], the values for the AUC(0-inf) in data set [1] (setting [6]) and in data set [1] (setting [9]) were 8540 ng·h/mL and 3470 ng·h/mL, respectively. The half-life in data set [1] (setting [6]) is 16.9 h; in data set [1] (setting [9]) it was 8.81 h. The figures for the Cmax in data set [1] (setting [7]) and in data set [1] (setting [10]) were 976 ng/mL and 233 ng/mL, respectively. For the same molecule, the Tmax in data set [1] (setting [8]) worked out at 0.033 h; in data set [1] (setting [12]) it was 4 h. The bioavailability in data set [1] (setting [13]) is 8.1%.
On to `CNc1ncc(C#Cc2cc(C(=O)Nc3cc(-n4cnc(C)c4)cc(C(F)(F)F)c3)ccc2C)cn1` [D800 hydrochloride salt, 4-methyl-N-(3-(4-methyl-1H-imidazol-1-yl)-5-(trifluoromethyl)phenyl)-3-(2-(2-(methylamino)pyrimidin-5-yl)ethynyl)benzamide], for which the “BA(% Oral bioavailability)” value in data set [1] is on record as 27.1%. In addition, the AUC(0-inf) is 48600 ng·h/mL in data set [1] (setting [16]) and 35800 ng·h/mL in data set [1] (setting [17]). In addition, the half-life is 7.8 h in data set [1] (setting [16]) and 7.5 h in data set [1] (setting [17]). The Cmax is 3090 ng/mL in data set [1] (both sexes, Sprague-Dawley, rat, plasma, iv, 25 mg/kg, IV 25 mg/kg, read-out: Cmax) and 11000 ng/mL in data set [1] (both sexes, Sprague-Dawley, rat, plasma, po, 5 mg/kg, PO 5 mg/kg, read-out: Cmax). Moreover, the Tmax came out at 2 h in data set [1] (both sexes, Sprague-Dawley, rat, plasma, iv, 25 mg/kg, IV 25 mg/kg, read-out: Tmax) and 0.033 h in data set [1] (both sexes, Sprague-Dawley, rat, plasma, po, 5 mg/kg, PO 5 mg/kg, read-out: Tmax).
`Cc1cn(-c2cc(NC(=O)c3ccc(C)c(C#Cc4cnc(NC(C)C)nc4)c3)cc(C(F)(F)F)c2)cn1` [D752 mesylate salt, 3-(2-(2-(isopropylamino)pyrimidin-5-yl)ethynyl)-4-methyl-N-(3-(4-methyl-1H-imidazol-1-yl)-5-(trifluoromethyl)phenyl)benzamide]: the total exposure AUC(0-inf) was 305000 ng·h/mL in data set [1] (setting [18]) and 70400 ng·h/mL in data set [1] (setting [19]). The half-life in data set [1] (setting [18]) is 43.9 h; in data set [1] (setting [19]), 7.55 h. The Cmax in data set [1] (both sexes, Sprague-Dawley, rat, plasma, iv, 10 mg/kg, IV 10 mg/kg, read-out: Cmax) was 19600 ng/mL; in data set [1] (both sexes, Sprague-Dawley, rat, plasma, po, 20 mg/kg, PO 20 mg/kg, read-out: Cmax), 1900 ng/mL. The Tmax in data set [1] (both sexes, Sprague-Dawley, rat, plasma, iv, 10 mg/kg, IV 10 mg/kg, read-out: Tmax) was 0.033 h; in data set [1] (both sexes, Sprague-Dawley, rat, plasma, po, 20 mg/kg, PO 20 mg/kg, read-out: Tmax), 20 h. Besides, the bioavailability in data set [1] (setting [13]) was 11.5%.
